Experiments:
[1] = Human liver microsome (HLM) metabolic stability assay; assay type: in vitro ADME; settings: human liver microsomes, 1 uM compound, 37° C., 60 min; % hepatic blood flow
Protocol: Assessment of Metabolic Stability
The 5 time point, high-throughput human liver microsome (HLM) metabolic stability assay is designed to determine in vitro compound metabolism. Compounds are incubated with HLMs at a concentration of 1 uM, at 37° C., for a total of 60 min. The percent of compound remaining at 5, 15, 30, and 60 min is used to calculate the t1/2 (min), CLint (mL/min/kg), CLh (mL/min/kg), and % Qh. The assay is based on a 96-well format and can accommodate up to 92 compounds per plate (n=1).
Using the 96-well multi-channel head, the Biomek FX, equipped with a Peltier heating block/shaker, is programmed to accomplish the following steps: • 1. Pipette 175 uL of 1.15 mg/mL microsomes into each of the 96 conical inserts (Analytical Sales and Products, catalog number 96PL05) that fit into the plate of the Peltier heating block/shaker (the incubation plate) • 2. Add 5 uL of compounds from the assay plate to the microsomes and shake the mixture at 600 rpm at 42.1° C. for 10 min (a setting of 42.1° C. on the Peltier is required for the samples to incubate at 37° C.) • 3. After 10 min, prompt the user to add the NADPH plate to the deck and add 20 uL from the NADPH plate to the incubation plate to start the reaction • 4. Add 215 uL of 100%, cold acetonitrile containing an internal standard(s) to a 0 minute, 5 minute, 15 minute, 30 minute, and 60 minute “quench” plate • 5. At 0 min, 5 min, 15 min, 30 min, and 60 min into the incubation, aspirate 12 uL from the incubation mixture and add it to the quench solution to stop the reaction • 6. Add 185 uL HPLC grade water to each well of the 0, 5, 15, 30 and 60 minute quench plates to dilute compounds to the appropriate concentration for the mass spectrometer
After all time points are collected, the quench plates are sealed with 96-well pierceable plate mats or heat sealing foil and centrifuged at 3000 rpm for 15 min to pellet the microsomes.
The plates are analyzed using LC/MS/MS with electron spray ionization (ESI) and the previously determined MRM transitions. The LC method includes the following parameters:
Using an Excel template in Activitybase, the peak areas corresponding to 5, 15, 30 and 60 min are compared to the peak area at 0 min to calculate the percent of remaining compound using the following equation:
Percent compound remaining=(AUC at Time t min/AUC at Time 0 min)×100 where t=0, 5, 15, 30 or 60 min.
Time (min) is plotted against the natural logarithm (Ln) of the percent compound remaining to determine the slope. The slope is used to calculate t1/2 (min) using the equation, t1/2=0.693/slope.
Clint, Intrinsic Clearance

[2] = biological target: T1, RORγ (Homo sapiens, UniProt P51449); assay: RORγ Reporter Gene Assay (RGA), luciferase transactivation in transiently transfected HEK 293 cells; assay type: cell-based; settings: HEK 293 cells cotransfected with pGL4.3 luc2P/GAL4UAS and pBIND Gal4DBD hRORC LBD; 20-24 h incubation
T1 construct: expressed in transfected cells; host or cells: HEK 293 cells, transiently cotransfected with pGL4.3 luc2P/GAL4UAS/Hygro reporter
T1 sequence (P51449 269-508 limits assumed): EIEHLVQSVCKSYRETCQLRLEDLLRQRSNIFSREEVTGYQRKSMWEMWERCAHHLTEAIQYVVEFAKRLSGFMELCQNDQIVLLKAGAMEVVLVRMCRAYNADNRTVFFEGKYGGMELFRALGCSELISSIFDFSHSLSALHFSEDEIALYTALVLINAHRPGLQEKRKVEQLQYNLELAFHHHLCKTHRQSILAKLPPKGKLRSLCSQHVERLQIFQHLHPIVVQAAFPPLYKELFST
Protocol: Reporter Gene Assay (RGA)
A nuclear receptor transactivation assay is performed to quantitate the ability of test compounds to inhibit RORγ transactivation of a luciferase reporter. A similar assay is described in: Khan et al., Bioorganic & Medicinal Chemistry Letters 23 (2013), 532-536. The system uses transiently transfected HEK 293 cells cotransfected with two plasmids (pGL4.3, luc2P/GAL4UAS/Hygro, and pBIND, Gal4DBD hRORC LBD1-3). The positive control is co-transiently transfected with both plasmids, and the negative control contains the pGL4.3 promoter sequence. Assays are assembled in 384 well plates where transiently transfected cells and test compound at varying concentrations are incubated for 20-24 h. The next day, assays plates are taken out and equilibrated at RT for 20-30 minutes. Bright-Glo™ Luciferase Assay System is used to detect Luciferase production. After addition of Bright GLO detection reagent, the plates are incubated at RT for 20 minutes. The plates are read on an Envision plate reader to measure luminescence signal. The RLU signal is converted to POC relative to control and blank wells.
Compound Dilution Buffer:
Bright Glo Luciferase Assay System: Promega #E2620
Thaw lysis buffer provided in kit, add 100 mL lysis buffer to substrate powder.

Row | SMILES | HLM (% Qh) [1] [% Qh] | IC50 [2] [nM]
1 | CC[C@@H](C)n1c(=O)c(NCc2ccc(S(=O)(=O)CC)cn2)nc2c(C)nc(-c3c(C)ncnc3C3CC3)nc21 [Example 65] | <24 | 135
2 | CCS(=O)(=O)c1ccc(CNc2nc3c(C)nc(-c4c(OC)ncnc4C4CC4)nc3n(C(C)C)c2=O)nc1 [Example 77] | <24 | 680
3 | CC[C@@H](C)n1c(=O)c(NCc2ncc(S(=O)(=O)CC)cn2)nc2c(C)nc(-c3c(OC)ncnc3C3CC3)nc21 [Example 4] | <24 | 180
4 | CCS(=O)(=O)c1cnc(CNc2nc3c(C)nc(-c4c(OC)ncnc4C4CC4)nc3n([C@@H](C)C3CC3)c2=O)nc1 [Example 10] | 27 | 97
5 | CC[C@H](C)n1c(=O)c(NCc2ccc(S(=O)(=O)CC)nc2)nc2c(C)nc(-c3c(C)ncnc3C3CC3)nc21 [Example 64] | <24 | 95
6 | CC[C@@H](C)n1c(=O)c(NCc2ccc(S(C)(=O)=O)cn2)nc2c(CO)nc(-c3c(C)ncnc3C3CC3)nc21 [Example 52] | <24 | 335
7 | CC[C@@H](C)n1c(=O)c(NCc2ccc(S(=O)(=O)CC)cn2)nc2c(C)nc(-c3c(OC)ncnc3C3CC3)nc21 [Example 86] | <24 | 73
8 | CC[C@H](C)n1c(=O)c(NCc2ccc(S(=O)(=O)CC)cn2)nc2c(C)nc(-c3c(OC)ncnc3C3CC3)nc21 [Example 58] | <24 | 71
9 | CC[C@H](C)n1c(=O)c(NCc2ncc(S(=O)(=O)CC)cn2)nc2c(C)nc(-c3c(OC)ncnc3C3CC3)nc21 [Example 15] | <24 | 150
10 | CCS(=O)(=O)c1ccc(CNc2nc3c(C)nc(-c4c(C)ncnc4C4CC4)nc3n([C@@H](C)C(F)(F)F)c2=O)cn1 [Example 82] | <24 | 225
11 | CCS(=O)(=O)c1ccc(CNc2nc3c(C)nc(-c4c(OC)ncnc4C4CC4)nc3n([C@@H](C)C3CC3)c2=O)nc1 [Example 71] | 35 | 65
12 | COc1ncnc(C2CC2)c1-c1nc(C)c2nc(NCc3ccc(S(C)(=O)=O)nc3)c(=O)n([C@@H](C)C3CC3)c2n1 [Example 8] | <24 | 75
13 | Cc1ncnc(C2CC2)c1-c1nc(C)c2nc(NCc3cnc(S(C)(=O)=O)cn3)c(=O)n([C@@H](C)C(F)(F)F)c2n1 [Example 37] | <24 | 455
14 | Cc1ncnc(C2CC2)c1-c1nc(C)c2nc(NCc3ccc(S(N)(=O)=O)cn3)c(=O)n([C@@H](C)C3CC3)c2n1 [Example 61] | <24 | 185
15 | CCS(=O)(=O)c1ccc(CNc2nc3c(C)nc(-c4c(C)ncnc4C4CC4)nc3n([C@@H](C)C(F)(F)F)c2=O)nc1 [Example 79] | <24 | 130
16 | CC[C@@H](C)n1c(=O)c(NCc2ccc(S(=O)(=O)CC)cn2)nc2c(COC(C)=O)nc(-c3c(C)ncnc3C3CC3)nc21 [Example 46] | 66 | 1050
17 | CC[C@@H](C)n1c(=O)c(NCc2ccc(S(=O)(=O)CC)nc2)nc2c(C)nc(-c3c(OC)ncnc3C3CC3)nc21 [Example 3] | <24 | 88
18 | CC[C@@H](C)n1c(=O)c(NCC2CCN(S(=O)(=O)CC)CC2)nc2c(C)nc(-c3c(C)ncnc3C3CC3)nc21 [Example 24] | 69 | 120
19 | CCS(=O)(=O)c1cnc(CNc2nc3c(C)nc(-c4c(C)ncnc4C4CC4)nc3n(C(C)C(F)F)c2=O)nc1 (centres unmarked) [Example 89] | <24 | 225
20 | CC[C@@H](C)n1c(=O)c(NCc2ccc(S(N)(=O)=O)cn2)nc2c(C)nc(-c3c(C)ncnc3C3CC3)nc21 [Example 76] | 34 | 275
21 | CC[C@H](C)n1c(=O)c(NCc2ccc(S(=O)(=O)CC)nc2)nc2c(C)nc(-c3c(OC)ncnc3C3CC3)nc21 [Example 63] | <24 | 100
22 | CCS(=O)(=O)c1ccc(CNc2nc3c(C)nc(-c4c(C)ncnc4C4CC4)nc3n([C@@H](C)C3CC3)c2=O)nc1 [Example 68] | <24 | 

Results, then the compound that gave them:

Row | HLM (% Qh) [1] [% Qh] | IC50 [2] [nM] | SMILES
23 | <24 | 730 | Cc1ncnc(C2CC2)c1-c1nc(C)c2nc(NCc3ccc(S(C)(=N)=O)cn3)c(=O)n([C@@H](C)C3CC3)c2n1 (single isomer, unassigned) [Example 43a]
24 | <24 | 1300 | Cc1ncnc(C2CC2)c1-c1nc(C)c2nc(NCc3ccc(S(C)(=N)=O)cn3)c(=O)n([C@@H](C)C(F)(F)F)c2n1 (single isomer, unassigned) [Example 106a]
25 | <24 | 365 | CCS(=N)(=O)c1ccc(CNc2nc3c(C)nc(-c4c(OC)ncnc4C4CC4)nc3n([C@@H](C)C(F)(F)F)c2=O)nc1 (single isomer, unassigned) [Example 101a]
26 | <24 | 265 | Cc1ncnc(C2CC2)c1-c1nc(C)c2nc(NCc3ccc(S(C)(=N)=O)cc3)c(=O)n([C@@H](C)C3CC3)c2n1 (single isomer, unassigned) [Example 27b]
27 | <24 | 295 | Cc1ncnc(C2CC2)c1-c1nc(C)c2nc(NCc3ccc(S(C)(=N)=O)cc3)c(=O)n([C@@H](C)C(F)(F)F)c2n1 (single isomer, unassigned) [Example 91a]
28 | <24 | 170 | CCS(=N)(=O)c1ccc(CNc2nc3c(C)nc(-c4c(C)ncnc4C4CC4)nc3n([C@@H](C)C(F)(F)F)c2=O)cc1 (single isomer, unassigned) [Example 34b]
29 | 25 | 170 | CC[C@@H](C)n1c(=O)c(NCc2ccc(S(=N)(=O)CC)cc2)nc2c(C)nc(-c3c(C)ncnc3C3CC3)nc21 (single isomer, unassigned) [Example 26b]
30 | 27 | 510 | COc1ncnc(C2CC2)c1-c1nc(C)c2nc(NCc3ccc(S(C)(=N)=O)cn3)c(=O)n([C@@H](C)C(F)(F)F)c2n1 (single isomer, unassigned) [Example 105b]
31 | 25 | 109 | CC[C@@H](C)n1c(=O)c(NCc2ccc(S(=N)(=O)CC)cc2)nc2c(C)nc(-c3c(C)ncnc3C3CC3)nc21 (single isomer, unassigned) [Example 26a]
32 | 48 | 170 | CC[C@@H](C)n1c(=O)c(NCc2ccc(S(=N)(=O)CC)cc2)nc2c(C)nc(-c3c(OC)ncnc3C3CC3)nc21 (single isomer, unassigned) [Example 29b]
33 | 28 | 840 | Cc1ncnc(C2CC2)c1-c1nc(C)c2nc(NCc3ccc(S(C)(=N)=O)cn3)c(=O)n([C@@H](C)C(F)(F)F)c2n1 (single isomer, unassigned) [Example 106b]

Source: patent publication US10450314B2, “Pteridine derivatives as modulators of ROR gamma” (Boehringer Ingelheim International GmbH, priority 2015, dated 2019)
